Results taken from US20180221874A1, “FLUIDIC DEVICES INC[…] TISSUE AND METHODS OF USE” (President and Fellows of Harvard College, priority 2015, published 2018).
Entries after “also recorded” stand apart in the source; their conditions may differ.

System: functional muscle tissue of human cardiac tissue
Assay: Cardiac field potentials of functional muscle tissue measured with flexible electrode array
Format: cell-based
Conditions: escalating doses of isoproterenol; cardiac field potentials detected by microelectrode array; FIG. 27, 28
Excerpt: A cell seeding well attached to a second portion of a fluidic device including a gelatin flexible substrate with a micropatterned top surface on a COC base was used to culture a functional muscle tissue of human cardiac tissue on the flexible substrate and to separately evaluate the functional muscle tissue prior to assembling the rest of the fluidic device. FIG. 26 is an image of the cell seeding well 400 attached to the second portion 192 of the fluidic device. The top of the cell seeding well 400 was wrapped in a gas permeable membrane. […] The cultured functional muscle tissue on the flexible substrate was exposed to escalating doses of isoproterenol, a beta-adrenergic agonist, and resulting cardiac field potentials were measured using the flexible electrode array. FIG. 27 is a graph of the measured cardiac field potentials 610, 620, […], 640, 650, 660, 670 as a function of time detected by the microelectrode array for various concentrations of isoproterenol. FIG. 28 is a graph of the measured QT interval shortening as a function of the dose of isoproterenol. […] Thus, the modular nature of the fluidic device enabled the flexible substrate on the second portion of the device to be easily seeded and cultured to form the functional muscle tissue, and enabled the functional muscle tissue to be evaluated prior to assembly of the full fluidic device.

With `CC(C)NCC(O)c1ccc(O)c(O)c1` (stereo not shown) [isoproterenol] the “QT interval as a function of isoproterenol dose” value was “shortening QT interval; also recorded: QT shortening with increased doses”.
